This is an account of results in patent publication US20080262088A1, “METHODS, COMPOUNDS, AND COMPOSITIONS FOR TREATING METABOLIC DISORDERS AND DIABETES” (priority 2006, published 2008).

Molecules are shown by their SMILES.

The test system of series [1] is patients with AA amyloidosis. The following applies: previously tested clinically in patients with AA amyloidosis; cited from earlier work.
Series [2] concerns Zucker Diabetic Fatty rat (ZDF). The series is described as follows: Effect on pancreatic function in ZDF rats (satient insulin, glycemia, diuresis). Type of series: in vivo. The procedure:
(§1) Thirty-two, 6 week-old male ZDF rats (Charles River, St. Constant, Canada) were randomized in 2 groups, Treated (PDS; in 1% sucrose drinking solution) and Control (1% sucrose drinking solution), and studied for a period of 12 weeks. […] All rats were fed a high fat/high sucrose diabetogenic diet (Harlan™ TD95217). Body weight, food and drinking solution consumption were measured on a daily basis. Twelve rats from each group were individually housed in metabolic cages for a period of 24 hours once a week. During week 2, 3, 4 and 5, rats placed in metabolic cages received drinking solution but were placed in fasting condition, whereas during weeks 1, […], 6 to 12, rats were given ad libitum access to food and drinking solution. At the end of each metabolic cage session, urine output was measured, and blood and urine samples were collected in order to quantify serum and/or urine levels of PDS, creatinine, protein, uric acid, triglycerides, glucose, and electrolytes. These variables were used to calculate creatinine clearance (Ccr) and proteinuria, and to evaluate general metabolic and renal health status. At the end of the study, the animals were sacrificed and selected organs were kept for further analysis (e.g. weighing, histology).
As is known, diabetes may be due to a lack of insulin secretion (type I diabetes), or to a resistance of peripheral tissues to insulin action (more insulin is needed to decrease blood glucose to the same level as controls in the same amount of time; type II diabetes). The Zucker obese diabetic rat employed in this study is a model of insulin resistance. Hyperglycemia is almost always observed in this model, despite the initially very high circulating insulin levels that fall down with the progression of the disease due to pancreatic beta cell exhaustion. A beneficial treatment is expected to increase insulin secretion, decrease glucose levels by other means or increase glucose utilization by peripheral tissues.
Results for each time point are represented as median and mean ± SEM. Trend statistics are calculated by two-way ANOVA with or without repeated measures, with p<0.05 considered statistically significant.

Series [3] has the same test system. The series is described as follows: Kidney histology (glomerular global score) in ZDF rats. Type of series: in vivo. The following applies: after 12 weeks. From the text:
FIG. 7 is a bar graph showing glomerular global score for control and treated satient Zucker diabetic obese male rats after 12 weeks, according to Example 11(a). Categories: (−) no global score; (±) mild global score; (+) mild to moderate global score; (++) moderate global score.
(§2) Thirty-two, 6 week-old male ZDF rats (Charles River, St. Constant, Canada) were randomized in 2 groups, Treated (PDS; in 1% sucrose drinking solution) and Control (1% sucrose drinking solution), and studied for a period of 12 weeks. […] All rats were fed a high fat/high sucrose diabetogenic diet (Harlan™ TD95217). Body weight, food and drinking solution consumption were measured on a daily basis. Twelve rats from each group were individually housed in metabolic cages for a period of 24 hours once a week. […] At the end of each metabolic cage session, urine output was measured, and blood and urine samples were collected in order to quantify serum and/or urine levels of PDS, creatinine, protein, uric acid, triglycerides, glucose, and electrolytes. […]
Histology was performed on both controls and PDS-treated animals. […] The global score was calculated by summing up the number of observations for each histological parameter (mesangial matrix expansion, glomerular cell proliferation, basement membrane thickening, and glomerular enlargement). […]

Series [4] has as its system Peroxisome proliferator-activated receptor gamma (PPARG). Nature of the series: Kidney gene expression, Gene Chip Rat Exon 1.0 ST Array. The settings on record: pooled whole kidney RNA, treated vs controls. It counts as in vivo. The procedure:
The effect of the PDS treatment on kidney gene expression was also measured. Briefly, whole kidney RNA was isolated and pooled from 2-4 individual rats from each group (controls and treated group). The polled RNA was then processed using a Gene Chip Rat Exon 1.0 ST Array™ (Affimetrix) according to the manufacturer's standard procedure and analyzed for differential expression between the two groups on gene and exon levels. […] PPARG is a well known transcriptional regulator that regulates lipid, glucose and amino acid metabolism, and this receptor is the main target of the thiazolidinediones used in diabetes mellitus and other diseases that feature insulin resistance.

For another series, the system named is SHR rats. Nature of the series: In vivo preventive study of pancreatic function in SHR rats (streptozotocine, OGTT). The settings on record: low dose streptozotocine after initiation of treatment, PDS vs vehicle. On the set-up: species or system rat. The procedure:
SHR rats are non-diabetic rats but having insulin resistance. Rats are divided in two groups which are administered PDS or vehicle respectively. After initiation of treatment, all rats are administered streptozotocine at low dose with the aim to chemically destroy a portion of Langerhans islets. Both treated and control rats are challenged by an Oral Glucose Tolerance Test (OGTT) and glucose levels are measured.

For series [5], the system named is Zucker Diabetic Fatty rat (ZDF). Nature of the series: Histology of the pancreas in ZDF rats (islets of Langerhans per field). It counts as in vivo. The settings on record: week 12, significant difference, FIG. 11.
Source text: FIG. 11 is a box graph showing distribution of number of islets of Langerhans per field counted during histology of the pancreas from control and treated Zucker diabetic obese male rats at week 12, according to Example 11(b). Box plot lower limit represents the 25th percentile, whereas higher limit represents 75th percentile. Whiskers above and below indicate 90th and 10th percentiles, and median and mean values are represented by solid and dashed lines respectively.
as §2

For series [6] the test system is unchanged. The series is described as follows: In vivo preventive study of renal function and metabolic status in ZDF rats (serum/urine chemistry, body and organ weights).
Source text: The compound 1,3 Propanedisulfonic Acid Disodium Salt (PDS) was selected for a preventive study of renal function in the Zucker rat (ZDF) model as well as its effect on metabolic status and diabetes.
A leading study model for DN is the inbred Zucker Diabetic Fatty rat (ZDF). Given a diabetogenic diet, the ZDF rat will closely mimic human adult onset diabetes (Type 2) and related complications including glomerulosclerosis and renal damage earlier than when fed a normal diet (i.e. 14-18 weeks of age). In addition, obesity, mild hypertension, hypertriglyceridemia, hypercholesterolemia, fasting hyperglycemia, impaired glucose tolerance and hyperinsulinemia, are all major phenotypes featured in the ZDF rat.
as §1
This pre-clinical investigation evaluates the role and efficacy of compound 1,3-Propanedisulfonic Acid Disodium Salt (PDS) (Eprodisate Disodium) as a preventive treatment for DN and related pathophysiology in the ZDF rat model. The primary measured outcome is the attenuation/reversal of creatinine clearance deterioration and of proteinuria. The secondary measured outcome is the impact on the metabolic status in this model.
Results for each time point are represented as median or mean ± SEM. Trend statistics are calculated by two-way ANOVA with or without repeated measures, with p<0.05 considered statistically significant.

The mark [7] stands for this setting: end of 12-week study, not shown.

As for `O=S(=O)(O)CCCS(=O)(=O)O` [1,3-propanedisulfonic acid], in series [1], the safety in humans entry was “can be safely used in humans”.
In the case of `O=S(=O)([O-])CCCS(=O)(=O)[O-].[Na+].[Na+]` [PDS, 1,3 Propanedisulfonic Acid Disodium Salt], the “glycemia, serum glucose by hexokinase (HK) II method, PDS-treated vs control” value in series [2] (by week 10, p<0.001, FIG. 9A) is reported as “significantly lower”. The “glycemia, capillary blood glucose by glucose meter kit, PDS-treated vs control” value in series [2] (by week 10, p=0.002, FIG. 9B) is reported as “significantly lower”. The “satient serum insulin (RIA), PDS-treated vs control” value in series [2] (end of the experiment (12 weeks), fed animals, FIG. 8) is recorded as “more than twice as high”. For the same compound, in series [2] (from week 9, FIG. 10), the “diuresis (urine production), PDS-treated vs control” value is “lower”. The “glomerular global score (histology)” value in series [3] (p=0.001, FIG. 7, sum of mesangial matrix expansion, glomerular cell proliferation, basement membrane thickening, glomerular enlargement) is recorded as “lowest scores”. In addition, the “kidney pathology (histology), treated vs control” value in series [3] (not shown separately) is on record as “less pathology”. The “PPARG gene expression in kidney, increase in treatment group” value in series [4] worked out at 1.85 fold. Besides, in series [4] (not shown), the “number of genes down regulated in the treatment group” value turned out to be 43 genes and the “number of genes up regulated in the treatment group” value amounted to 75 genes. Further, the “glucose levels after Oral Glucose Tolerance Test (OGTT)” value in the series with SHR rats was “lower glucose levels than control”. For the same compound, the “number of islets of Langerhans per field, treated vs controls” value in series [5] is on record as “higher number”. For the same compound, the “creatinine clearance (body weight corrected), treated vs control” value in series [6] (12 weeks of treatment, FIG. 2B, slight tendency to be higher weeks 6-8) is “no significant difference”. Moreover, in series [6] (FIG. 4B, body weight corrected), the “clearance of uric acid, treated vs control” value is “better in treated animals”. Besides, the “proteinuria (urine protein content), treated vs control” value in series [6] (after 8 weeks measurable effect, difference significant at weeks ten and twelve, FIG. 3) is “lesser proteinuria”. In addition, the “kidney size, treated vs controls” value in series [6] (end of 12-week study) is given as “tended to be smaller”. Further, in series [6] (setting [7]), the “heart weight/BW ratio, treated vs control” value was “no significant difference”; the “kidney weight/BW ratio, treated vs control” value is “no significant difference”; the “pancreas weight/BW ratio, treated vs control” value is “no significant difference”. Also, the “serum triglycerides, PDS-treated vs controls” value in series [6] (from onset of treatment throughout the study, p=0.002, FIG. 6A) is given as “consistently lower”. Further, the “adverse effect at the beginning of the study (little decline in body weight)” value in series [6] (higher concentration of PDS, week 1 (avg 4270 mg/kg/day)) is “diarrhea”. The “bodyweight of the treated vs. the control animals” value in series [6] (male ZDF rats, PDS in 1% sucrose drinking solution, 12 weeks, data not shown) is on record as “not significant difference”. In addition, the “serum creatinine, treated vs control” value in series [6] (satient ZDF rats, 12 weeks, FIG. 2A, stable in both groups) is “tendency for lower values between treatment weeks 6 and 9”. For the same compound, the “hyperkalemia (serum potassium), control vs treated” value in series [6] (starting at week 7, weeks 8 to 12, p<0.001, FIG. 5) was “significantly more severe in the control group”. For the same compound, the “serum cholesterol, PDS-treated vs control” value in series [6] (treatment week 10, FIG. 6B) is given as “significantly lower”. In addition, in series [6] (week 12, control 7.1 mmol/L, p<0.001), the serum cholesterol is given as 4.5 mmol/L. Also, the “uric acid levels in serum, control group relative to PDS-treated animals” value in series [6] (weeks 6 to 12, FIG. 4A) was “consistently higher than values from the PDS-treated animals”.
